Laboratory results reported in patent US8778939B2, “Compounds” (Glaxo Group Limited, priority 2009, dated 2014).

What was measured:
[1] = biological target: T1, 6His-Tev-LRRK2 (1326-2527) (Homo sapiens, UniProt Q5S007); test: LRRK2 AlphaScreen desensitised protein substrate assay; type: biochemical; conditions: excess of ATP present (2 mM ATP); read-out: pIC50 in the LRRK2 alphascreen desensitised protein substrate assay (converted)
T1 construct: A LRRK2 cDNA encoding residues 1326-2527 was received from Dundee University; made in house; host or cells: Spodoptera frugiperda (Sf9) insect cells, baculovirus
T1 sequence (Q5S007 1326-2527): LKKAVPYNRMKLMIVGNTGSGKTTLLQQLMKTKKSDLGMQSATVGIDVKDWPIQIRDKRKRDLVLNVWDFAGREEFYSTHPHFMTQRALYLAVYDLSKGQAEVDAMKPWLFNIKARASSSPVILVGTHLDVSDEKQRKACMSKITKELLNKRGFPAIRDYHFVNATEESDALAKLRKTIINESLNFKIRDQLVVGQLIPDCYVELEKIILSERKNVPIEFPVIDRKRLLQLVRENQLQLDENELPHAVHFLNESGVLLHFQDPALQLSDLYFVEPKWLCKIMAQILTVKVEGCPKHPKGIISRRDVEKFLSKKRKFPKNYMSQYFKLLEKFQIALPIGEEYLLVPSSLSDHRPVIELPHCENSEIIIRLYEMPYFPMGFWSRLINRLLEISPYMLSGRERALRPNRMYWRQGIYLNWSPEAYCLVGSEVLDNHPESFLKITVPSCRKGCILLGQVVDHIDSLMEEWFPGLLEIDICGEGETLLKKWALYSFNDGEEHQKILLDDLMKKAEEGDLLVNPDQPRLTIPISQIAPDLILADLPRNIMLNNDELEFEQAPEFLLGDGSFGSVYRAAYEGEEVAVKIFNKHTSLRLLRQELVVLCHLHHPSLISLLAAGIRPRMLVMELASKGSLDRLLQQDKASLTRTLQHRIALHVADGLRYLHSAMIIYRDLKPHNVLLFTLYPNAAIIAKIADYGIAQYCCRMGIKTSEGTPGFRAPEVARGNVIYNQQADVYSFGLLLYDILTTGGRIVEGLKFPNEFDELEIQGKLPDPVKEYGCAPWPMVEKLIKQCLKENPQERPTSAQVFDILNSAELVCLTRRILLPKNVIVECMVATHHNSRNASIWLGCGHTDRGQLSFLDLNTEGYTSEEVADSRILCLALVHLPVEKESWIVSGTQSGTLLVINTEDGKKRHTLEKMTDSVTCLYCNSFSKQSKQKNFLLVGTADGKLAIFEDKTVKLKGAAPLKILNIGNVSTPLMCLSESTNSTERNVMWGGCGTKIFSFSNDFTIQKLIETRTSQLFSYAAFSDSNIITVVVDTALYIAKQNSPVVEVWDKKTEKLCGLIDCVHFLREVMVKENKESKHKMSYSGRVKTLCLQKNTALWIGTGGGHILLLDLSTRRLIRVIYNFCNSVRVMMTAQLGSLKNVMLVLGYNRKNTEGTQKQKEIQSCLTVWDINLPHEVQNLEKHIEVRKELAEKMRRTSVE
Procedure: (§1) a) 100 nl of a 1:4 serial dilution of test compound with a top final assay concentration of 30 μM is added to certain wells in a low volume 384 well black plate. 100 nl of DMSO is used in certain wells as controls.
b) 3 μl enzyme solution (80 nM purified recombinant 6His-Tev-LRRK2 (1326-2527) in assay buffer: 50 mM Hepes (pH 7.2), 10 mM MgCl2, 150 mM NaCl, 5% glycerol, 0.0025% triton X-100 and 1 mM DTT) is added to certain wells.
Plates are then incubated for a further 1-2 hours at room temperature (incubation time varies depending upon rate and linearity of reaction with differing enzyme batches).
d) 6 μl detection solution (1:250 dilution of AlphaLisa Protein A Acceptor beads (PerkinElmer), 1:64 dilution of AlphaLisa Gluthathione Donor beads (PerkinElmer) and 1:600 dilution (dilution determined on a batch to batch basis) of Phospho-Ezrin (Thr567)/Radixin (Thr564)/Moesin (Thr558) Polyclonal Antibody (New England Biolabs) in a buffer: 50 mM Hepes (pH 7.5), 250 mM NaCl, 60 mM EDTA, 1% PEG and 0.01% Brij 35) is added to each well. Plates are then incubated for a further 2 hours at room temperature in the dark before reading on an EnVision™ plate reader with AlphaScreen HTS turbo option module and AlphaScreen settings. Data is analysed using ActivityBase software (IDBS).
LRRK2 AlphaScreen Desensitised Protein Substrate Assay
This is conducted as described for the LRRK2 alphascreen protein substrate assay, with the following differences: • 1. The concentration of ATP in the substrate solution was 2 mM. • 2. The plates were incubated for 20 minutes at room temperature following addition of the substrate solution. Pharmacological Data

[2] = biological target: T1, 6His-Tev-LRRK2 (1326-2527); test: LRRK2 peptide substrate assay; type: biochemical; conditions: Biotin-LRRKtide peptide substrate, ATP at Km; read-out: pIC50 in the LRRK2 peptide substrate assay (converted)
Procedure: Compounds of formula (I) may be tested for in vitro kinase activity in accordance with the following assays, using the non natural, in vitro, substrates moesin and the Longer Biotin-LRRKtide. Moesin and a shorter version of the peptide were identified as substrates in Jaleel et al, (2007, Biochem J, 405: 307-317).
LRRK2 Peptide Substrate Assay
as §1
b) 3 μl enzyme solution (80 nM purified recombinant 6His-Tev-LRRK2 (1326-2527) in assay buffer: 50 mM Hepes (pH 7.2), 10 mM MgCl2, 150 mM NaCl, 5% glycerol, 0.0025% triton X-100 and 1 mM DTT) is added to certain wells. […] Plates are then incubated for a further 1-2 hours at room temperature (incubation time varies depending upon rate and linearity of reaction with differing enzyme batches). d) 6 μl detection solution (50 nM Streptavidin SureLight® APC (PerkinElmer), 4 nM Eu-W1024 labelled anti-rabbit IgG antibody (PerkinElmer), 1:500 dilution (dilution determined on a batch to batch basis) of Phospho-Ezrin (Thr567)/Radixin (Thr564)/Moesin (Thr558) Polyclonal Antibody (New England Biolabs) and 60 mM EDTA in buffer: 40 mM Hepes (pH 7.2), 150 mM NaCl, 0.03% BSA) is added to each well. Plates are then incubated for a further 2 hours at room temperature before reading on a suitable plate reader (Excitation 330 nm, emission 620 nm (Eu) and 665 nm (APC)). Data is analysed using ActivityBase software (IDBS). LRRK2 AlphaScreen Protein Substrate Assay

| Compound | IC50 [1] | IC50 [2] |
| --- | --- | --- |
| CN1CCN(C(=O)c2ccc(OCc3ccccc3)c(C(=O)Nc3cccnc3)c2)CC1 [Example 35, 5-[(4-Methyl-1-piperazinyl)carbonyl]-2-[(phenylmethyl)oxy]-N-3-pyridinylbenzamide] | ≤ 20 µM |  |
| O=C(Nc1cccnc1)c1cc(C(=O)N2CCCCC2)ccc1OCc1ccccc1 [Example 36, 2-[(Phenylmethyl)oxy]-5-(1-piperidinylcarbonyl)-N-3-pyridinylbenzamide] | ≤ 20 µM |  |
| O=C(Nc1cccnc1)c1cc(C(=O)N2CCCC2)ccc1OCc1ccccc1 [Example 37, 2-[(Phenylmethyl)oxy]-N-3-pyridinyl-5-(1-pyrrolidinylcarbonyl)benzamide] | ≤ 20 µM | ≤ 0.1 µM |
| O=C(Nc1cccnc1)c1cc(S(=O)(=O)N2CCOCC2)ccc1OCc1ccccc1 [Example 41, 5-(4-Morpholinylsulfonyl)-2-[(phenylmethyl)oxy]-N-3-pyridinylbenzamide] | > 25.1 µM |  |
| O=C(Nc1cccnc1)c1cc(S(=O)(=O)N2CCCCC2)ccc1OCc1ccccc1 [Example 42, 2-[(Phenylmethyl)oxy]-5-(1-piperidinylsulfonyl)-N-3-pyridinylbenzamide] | > 25.1 µM |  |
| CN1CCN(S(=O)(=O)c2ccc(OCc3ccccc3)c(C(=O)Nc3cccnc3)c2)CC1 [Example 43, 5-[(4-Methyl-1-piperazinyl)sulfonyl]-2-[(phenylmethyl)oxy]-N-3-pyridinylbenzamide] | > 25.1 µM |  |
| Cn1cc(NC(=O)c2cc(Br)ccc2OCc2ccccc2)cn1 [Example 50, 5-Bromo-N-(1-methyl-1H-pyrazol-4-yl)-2-[(phenylmethyl)oxy]benzamide] | ≤ 20 µM |  |
| Cc1ccncc1NC(=O)c1cc(-c2ccncc2)ccc1OCc1ccccc1 [Example 52, N-(4-Methyl-3-pyridinyl)-2-[(phenylmethyl)oxy]-5-(4-pyridinyl)benzamide] | > 25.1 µM |  |
| COc1ncccc1NC(=O)c1cc(-c2ccncc2)ccc1OCc1ccccc1 [Example 53, N-[2-(Methyloxy)-3-pyridinyl]-2-[(phenylmethyl)oxy]-5-(4-pyridinyl)benzamide] | > 25.1 µM |  |
| O=C(Nc1cccnc1F)c1cc(-c2ccncc2)ccc1OCc1ccccc1 [Example 54, N-(2-Fluoro-3-pyridinyl)-2-[(phenylmethyl)oxy]-5-(4-pyridinyl)benzamide] | ≤ 20 µM |  |
| O=C(Nc1cccnc1CO)c1cc(-c2ccncc2)ccc1OCc1ccccc1 [Example 55, N-[2-(Hydroxymethyl)-3-pyridinyl]-2-[(phenylmethyl)oxy]-5-(4-pyridinyl)benzamide] | > 25.1 µM |  |
| O=C(Nc1cnccc1CO)c1cc(-c2ccncc2)ccc1OCc1ccccc1 [Example 56, N-[4-(Hydroxymethyl)-3-pyridinyl]-2-[(phenylmethyl)oxy]-5-(4-pyridinyl)benzamide] | > 25.1 µM |  |
| Cc1oncc1NC(=O)c1cc(-c2ccncc2)ccc1OCc1ccccc1 [Example 62, N-(5-Methyl-4-isoxazolyl)-2-[(phenylmethyl)oxy]-5-(4-pyridinyl)benzamide] | > 25.1 µM |  |
| O=C(Nc1cn[nH]c1)c1cc(-c2ccncc2)ccc1OCc1ccccc1 [Example 64, 2-[(Phenylmethyl)oxy]-N-1H-pyrazol-4-yl-5-(4-pyridinyl)benzamide] | ≤ 20 µM |  |
| Cn1cc(NC(=O)c2cc(-c3ccncc3)ccc2OCc2ccccc2)cn1 [Example 65, N-(1-Methyl-1H-pyrazol-4-yl)-2-[(phenylmethyl)oxy]-5-(4-pyridinyl)benzamide] | ≤ 20 µM |  |
| O=C(Nc1ccnnc1)c1cc(CN2CCOCC2)ccc1OCc1ccc(F)c(F)c1 [Example 111, 2-{[(3,4-Difluorophenyl)methyl]oxy}-5-(4-morpholinylmethyl)-N-4-pyridazinylbenzamide] | ≤ 20 µM |  |
| COc1ccccc1COc1ccc(-c2cnn(C)c2)cc1C(=O)Nc1cccnc1 [Example 114, 2-({[2-(Methyloxy)phenyl]methyl}oxy)-5-(1-methyl-1H-pyrazol-4-yl)-N-3-pyridinylbenzamide] | ≤ 20 µM |  |
| NCc1ccc(OCc2ccc(F)c(F)c2)c(C(=O)Nc2cccnc2)c1 [Example 120A, 5-(Aminomethyl)-2-{[(3,4-difluorophenyl)methyl]oxy}-N-3-pyridinylbenzamide] | > 25.1 µM |  |
| COC(=O)NCc1ccc(OCc2ccc(F)c(F)c2)c(C(=O)Nc2cccnc2)c1 [Example 120B, Methyl ({4-{[(3,4-difluorophenyl)methyl]oxy}-3-[(3-pyridinylamino)carbonyl]phenyl}methyl)carbamate] | > 25.1 µM |  |
| Cc1nocc1NC(=O)c1cc(C(=O)N2CCOCC2)ccc1OCc1ccc(F)cc1 [Example 124, 2-{[(4-Fluorophenyl)methyl]oxy}-N-(3-methyl-4-isoxazolyl)-5-(4-morpholinylcarbonyl)benzamide] | > 25.1 µM |  |
| Cc1nocc1NC(=O)c1cc(C(=O)N2CCOCC2)ccc1OCc1ccc(F)cc1F [Example 126, 2-{[(2,4-Difluorophenyl)methyl]oxy}-N-(3-methyl-4-isoxazolyl)-5-(4-morpholinylcarbonyl)benzamide] | ≤ 20 µM |  |
| O=C(Nc1ccnnc1)c1cc(C(F)(F)F)ccc1OCc1ccc(F)cc1 [Example 132, 2-{[(4-Fluorophenyl)methyl]oxy}-N-4-pyridazinyl-5-(trifluoromethyl)benzamide] | ≤ 20 µM |  |
| Cc1nocc1NC(=O)c1cc(C(F)(F)F)ccc1OCc1ccc(F)cc1 [Example 133, 2-{[(4-fluorophenyl)methyl]oxy}-N-(3-methyl-4-isoxazolyl)-5-(trifluoromethyl)benzamide] | > 25.1 µM |  |
| Cc1oncc1NC(=O)c1cc(-c2cnn(C)c2)ccc1OCc1ccc(F)cc1 [Example 135, 2-{[(4-Fluorophenyl)methyl]oxy}-N-(5-methyl-4-isoxazolyl)-5-(1-methyl-1H-pyrazol-4-yl)benzamide] |  | ≤ 0.1 µM |
